Here are results for 4 molecules from patent US20260317319A1, “NOVEL ERGOLINES AND METHODS OF TREATING MOOD DISORDERS” (Gilgamesh Pharma Inc., priority 2023, published 2026).

Each structure is given as a SMILES string. Read-outs that look alike come from different tables or passages of the source.

The target in one data set is T1, 5-HT1A receptor (Homo sapiens, UniProt P08908).
T1 construct: expressed in transfected cells; host or cells: CHO cells, stably transfected
T1 sequence (P08908 1-422): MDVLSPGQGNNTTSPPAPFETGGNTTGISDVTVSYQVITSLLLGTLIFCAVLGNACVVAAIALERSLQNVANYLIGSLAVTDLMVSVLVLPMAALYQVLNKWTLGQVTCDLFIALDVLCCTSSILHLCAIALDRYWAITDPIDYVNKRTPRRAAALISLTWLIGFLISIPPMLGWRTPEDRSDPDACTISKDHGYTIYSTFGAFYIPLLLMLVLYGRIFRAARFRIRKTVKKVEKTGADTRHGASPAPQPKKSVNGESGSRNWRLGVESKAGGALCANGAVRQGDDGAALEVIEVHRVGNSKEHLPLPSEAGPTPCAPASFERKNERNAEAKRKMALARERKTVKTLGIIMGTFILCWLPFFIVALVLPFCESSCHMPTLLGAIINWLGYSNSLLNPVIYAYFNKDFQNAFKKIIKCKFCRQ
Kind of data set: cell-based. Conditions: agonist, Ca2+ flux; for Emax: CHO, CHO cells with Gα15, max dose, read-out: 5-HT1A % Act @ Max Dose. The method, boiled down: (§1)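 FLIPR Tetra fluorescence read-out of calcium flux after compound addition. Receptor-expressing stable lines were used (HEK293 for 2A/2B; CHO with Gα15 for 1A), dye-loaded with Fluo-4 Direct and 2.5 mM final probenecid, 50 min at 37 °C.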
In general terms: A change in cytosolic calcium serves as a functional read-out for many receptors and channels.

Data set [1] addresses T2, 5-HT2B receptor (Homo sapiens, UniProt P41595).
T2 construct: expressed in transfected cells; host or cells: HEK293, stably transfected
Kind of data set: 5-HT2B receptor radioligand binding ([3H]LSD). Conditions: read-out: 5-HT2B Receptor Ki.

Data set [2] addresses T3, 5-HT2A receptor (Homo sapiens, UniProt P28223). Kind of data set: cell-based. It is filed as cell-based. As to conditions: agonist, beta-arrestin recruitment; for EC50: PathHunter, read-out: 5-HT2A Arrestin EC50; for Emax: read-out: 5-HT2A Arrestin % Act @ Max Dose. The procedure, abridged: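 Agonist activity expressed as percent of maximal control ligand signal after vehicle subtraction, from chemiluminescence (RLU). Cells carry ProLink-tagged 5-HT2A plus β-arrestin fused to β-gal deletion mutant; ligand-driven arrestin binding restores β-galactosidase activity (PathHunter). Cells pre-incubated at 37° C.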

Data set [3] addresses T2, 5-HT2B receptor. Kind of data set: cell-based. It is filed as cell-based. As to conditions: Ca2+ flux; for Emax: HEK293, agonist, read-out: 5-HT2B % Act @ Max Dose; for EC50: HEK293. The method, boiled down: as §1
The target of data set [4] is T3, 5-HT2A receptor. As to the kind of experiment: cell-based. Also on record: expressed in transfected cells; host or cells: HEK293, stably transfected. Conditions: for Emax: HEK293, agonist, read-out: 5-HT2A % Act @ Max Dose; for EC50: HEK293. In kind it is cell-based. The method, boiled down:
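Using HEK293 lines for the 5-HT2 subtypes and Gα15-coupled CHO cells for 5-HT1A, compounds were tested as agonists. Fluorescent Ca2+ signal followed dye loading (Fluo-4 Direct, 2.5 mM final probenecid, 50 min, 37 °C).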

The target of data set [5] is T3, 5-HT2A receptor. As to the kind of experiment: biochemical. In kind it is binding. Also on record: expressed in transfected cells; host or cells: HEK293, stably transfected. As to conditions: for Ki: [3H]ketanserin 1 nM, HEK293 stable cell line, 1 h, 25 °C. The procedure, abridged:
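Values reflect [^3H]ketanserin binding competition. Assay conditions were adapted from the literature.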

The target of another data set is T4, 5-HT2C receptor (Homo sapiens, UniProt P28335).
T4 sequence (P28335 33-458): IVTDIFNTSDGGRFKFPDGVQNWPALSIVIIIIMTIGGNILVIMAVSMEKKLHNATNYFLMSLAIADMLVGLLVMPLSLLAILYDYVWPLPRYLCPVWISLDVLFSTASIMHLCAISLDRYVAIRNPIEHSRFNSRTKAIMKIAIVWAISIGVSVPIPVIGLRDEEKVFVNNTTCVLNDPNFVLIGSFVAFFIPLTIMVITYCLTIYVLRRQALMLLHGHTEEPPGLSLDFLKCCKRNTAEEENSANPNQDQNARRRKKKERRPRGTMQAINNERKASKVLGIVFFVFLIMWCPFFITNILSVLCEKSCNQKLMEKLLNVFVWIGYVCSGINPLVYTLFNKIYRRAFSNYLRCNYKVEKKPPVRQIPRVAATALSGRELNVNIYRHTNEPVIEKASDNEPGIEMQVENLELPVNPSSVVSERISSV
Kind of data set: cell-based. Conditions: agonist, Ca2+ flux, Eurofins DiscoverX protocol; for Emax: max dose, read-out: 5-HT2C % Act @ Max Dose; for EC50: read-out: 5-HT2C EC50.

The target in the next data set is T5, 5-HT1B receptor (Homo sapiens, UniProt P28222).
T5 construct: expressed in transfected cells
T5 sequence (P28222 whole entry): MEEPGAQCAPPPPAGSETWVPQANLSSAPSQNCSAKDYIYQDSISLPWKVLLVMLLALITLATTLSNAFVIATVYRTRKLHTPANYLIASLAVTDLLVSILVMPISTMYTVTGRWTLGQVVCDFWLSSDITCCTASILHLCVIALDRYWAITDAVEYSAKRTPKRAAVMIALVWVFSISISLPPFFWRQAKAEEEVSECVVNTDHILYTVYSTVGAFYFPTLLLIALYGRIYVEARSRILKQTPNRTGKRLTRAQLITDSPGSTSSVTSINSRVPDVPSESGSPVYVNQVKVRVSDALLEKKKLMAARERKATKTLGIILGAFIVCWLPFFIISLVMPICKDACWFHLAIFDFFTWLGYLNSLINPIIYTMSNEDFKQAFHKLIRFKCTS
As to the kind of experiment: cAMP accumulation functional assay at 5-HT1B. In kind it is cell-based. As to conditions: agonist, cAMP accumulation; for Emax: read-out: 5-HT1B % Act @ Max Dose. The method, boiled down: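 Stably transfected human 5-HT1B cells were incubated 60 min at room temperature, after which detection reagent was applied for another 60 min at RT. The read-out was cAMP accumulation, used as a measure of agonist activity.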

Data set [6] can be described thus: in vitro. It is filed as in vitro ADME, rat. As to conditions: RLM (male Sprague-Dawley) 0.50 mg/mL, NADPH 1 mM, 1 μM compound, pH 7.4, 37° C., 60 min. The source says:
RLM Stability Pooled RLM from male Sprague-Dawley rats (Xenotech R1000) were used.

Another data set concerns C57BL/6 mice. Kind of data set: Automated mouse head twitch response (HTR) assay (video tracking). Conditions: sc. It is filed as in vivo. As to the method:
Disclosed compounds were tested for their ability to induce a head twitch response (HTR) in mice using an automated video tracking procedure, with the results summarized in Table 8 and FIG. 4.
Animals. Adult male C57BL/6 mice aged 8-10 weeks (Jackson Labs, Bar Harbor, ME; body weight 18-25 g) were used in this experiment. Animals were group housed under environmentally controlled temperatures and 12-hour light/dark cycles (lights on between 06:00-18:00 h), with ad libitum food and water. Mice were habituated to the facility for at least 5 days prior to testing. All animal procedures were approved by the local IACUC and conducted in accordance with the NIH Guide for the Care and Use of Laboratory Animals.
Procedure. Mice were administered one dose of the drug and immediately placed into a small open field for behavioral observation. High-speed video of animals' behavior was captured continuously for 20 min. Video recordings were imported into an image processing software, which detects multiple points of interest on each animal's body, including the left and right ear. HTR events were defined as periodic deviations of ear locations from temporally averaged ear locations. Predefined thresholds for magnitude and frequency of location deviations were used to filter HTR events from random head movements. The method was validated by comparing detected events with manual (human) observations and found to have an accuracy >95%. The total number of HTR events counted during the 20-min recording and the rate in HTR/min calculated over 2-min bins were determined for each animal at each dose.
Statistical Analysis. The data points shown are the mean±standard error of the mean (SEM).

Data set [7] in a line: in vitro. As to conditions: MLM (male CD-1) 0.50 mg/mL, NADPH 1 mM, 1 μM compound, pH 7.4, 37° C., 60 min. In kind it is in vitro ADME, mouse. The source says:
MLM Stability Pooled MLM from male CD-1 mice (BIOIVT M00501) were used.

The nature of data set [8]: in vitro. In kind it is in vitro ADME, human. Conditions: HLM 0.50 mg/mL, NADPH 1 mM, 1 μM compound, pH 7.4, 37° C., 60 min.

T2 sequence (P41595 whole entry): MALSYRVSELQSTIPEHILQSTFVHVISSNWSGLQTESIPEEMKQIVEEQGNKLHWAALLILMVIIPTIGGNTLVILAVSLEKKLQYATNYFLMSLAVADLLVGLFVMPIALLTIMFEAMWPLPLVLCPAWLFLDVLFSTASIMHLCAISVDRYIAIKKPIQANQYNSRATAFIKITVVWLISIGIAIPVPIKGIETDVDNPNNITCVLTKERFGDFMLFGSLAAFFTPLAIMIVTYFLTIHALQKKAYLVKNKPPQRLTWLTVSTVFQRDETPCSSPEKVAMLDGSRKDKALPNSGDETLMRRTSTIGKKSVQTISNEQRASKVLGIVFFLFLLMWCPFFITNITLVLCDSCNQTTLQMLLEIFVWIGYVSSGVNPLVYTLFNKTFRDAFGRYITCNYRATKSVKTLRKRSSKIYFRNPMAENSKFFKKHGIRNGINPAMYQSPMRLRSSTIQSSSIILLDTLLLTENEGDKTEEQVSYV
T3 sequence (P28223 whole entry, the tested form may be a part): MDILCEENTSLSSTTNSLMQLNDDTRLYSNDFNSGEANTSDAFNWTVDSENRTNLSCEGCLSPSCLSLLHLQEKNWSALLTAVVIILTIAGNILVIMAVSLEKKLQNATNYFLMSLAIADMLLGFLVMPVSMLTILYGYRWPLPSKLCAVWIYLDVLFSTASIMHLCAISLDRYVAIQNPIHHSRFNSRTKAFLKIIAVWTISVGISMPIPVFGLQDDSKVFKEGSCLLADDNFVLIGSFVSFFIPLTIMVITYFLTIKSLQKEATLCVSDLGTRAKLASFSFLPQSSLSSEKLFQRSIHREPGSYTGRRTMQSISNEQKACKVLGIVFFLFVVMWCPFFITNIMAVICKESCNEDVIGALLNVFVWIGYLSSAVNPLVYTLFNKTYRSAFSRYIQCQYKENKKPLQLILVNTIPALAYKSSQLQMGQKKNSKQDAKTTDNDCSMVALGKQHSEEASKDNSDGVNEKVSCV

Take `CCN(CC)C(=O)[C@@H]1C=C2c3cccc4[nH]c(Br)c(c34)C[C@H]2N(CCC(F)(F)F)C1` [Compound 42, (6aR,9R)-5-bromo-N,N-diethyl-7-(3,3,3-trifluoropropyl)-4,6,6a,7,8,9-hexahydroindolo[4,3-fg]quinoline-9-carboxamide]: the Emax at 5-HT1A receptor stood at 9.13%; at 5-HT2A receptor [2] (max dose), 49.4%; on 5-HT2B receptor [3] (HEK293, max dose), 2.58%; at 5-HT2A receptor [4] (Ca2+ flux, HEK293, max dose), 8.29%; at 5-HT2C receptor, 17.9%; on 5-HT1B receptor (max dose) it was 33.1%. The Ki at 5-HT2B receptor [1] came out at 238 nM. Besides, the results for the EC50 on 5-HT2A receptor [2] and at 5-HT2C receptor were 16 nM and above 10000 nM, respectively. Also, the “agonist activity at any of the serotonin receptors tested” value on 5-HT2A receptor [4] (functional assays at 5-HT2A, 2B, 2C, 1A, 1B) is reported as “no agonist activity at any of the receptors tested”. For the same molecule, the “potency in receptor binding” value on 5-HT2A receptor [5] (radioligand binding, 5-HT2A) is listed as “potent binding to 5-HT2A”.
As for `CCC[C@@H](C)NC(=O)[C@@H]1C=C2c3cccc4[nH]c(Br)c(c34)C[C@H]2N(C)C1` [Compound 45, (6aR,9R)-5-bromo-N—((R)-pentan-2-yl)-7-methyl-4,6,6a,7,8,9-hexahydroindolo[4,3-fg]quinoline-9-carboxamide], the Emax on 5-HT1A receptor was 12.5%; at 5-HT2A receptor [2] (max dose) it was 45.3%; on 5-HT2B receptor [3] (HEK293, max dose), -0.31%; on 5-HT2A receptor [4] (Ca2+ flux, HEK293, max dose) it was 22.3%; at 5-HT2C receptor, 22.1%; on 5-HT1B receptor (max dose), 87.1%. At 5-HT2B receptor [1], the Ki was determined as 3.65 nM. In addition, the EC50 on 5-HT2A receptor [2] is 4.28 nM; at 5-HT2C receptor it was above 10000 nM.
On to `CCN(CC)C(=O)[C@@H]1C=C2c3cccc4[nH]cc(c34)C[C@H]2NC1` [Compound 83], for which the Ki on 5-HT2B receptor [1] ([3H]LSD 2 nM, HEK293 stable cell line, 1 h, 25 °C) was 115 nM; on 5-HT2A receptor [5], 5.65 nM. In addition, the EC50 at 5-HT2A receptor [2] came out at 2.71 nM; on 5-HT2B receptor [3] (agonist), 22.5 nM; at 5-HT2A receptor [4] (agonist, Ca2+ flux) it was 1.7 nM; on 5-HT1B receptor, 27.4 nM. For the same molecule, on 5-HT2A receptor [2] (max dose), the “5-HT2A Arrestin % Act @ Max Dose” value was 88.78%. In addition, the “5-HT2B % Act @ Max Dose” value on 5-HT2B receptor [3] (agonist, HEK293, max dose) worked out at 69.27%. Also, the “Intrinsic clearance (Clint)” value in “in vitro [6]” is 15.3 µL/min/mg; in “in vitro [7]” it was 12.6 µL/min/mg; in the data set “in vitro [8]”, below 9.6 µL/min/mg. Also, the “half-life (t1/2)” value is given as 90.5 min in “in vitro [6]”, 110.1 min in “in vitro [7]” and above 145 min in “in vitro [8]”. Besides, the “5-HT2A % Act @ Max Dose” value at 5-HT2A receptor [4] (agonist, Ca2+ flux, HEK293, max dose) was 107.11%. Moreover, the “# HTR/20 min at Most Efficacious Dose” value with C57BL/6 mice (20 min recording, mean, at each compound's most efficacious dose (35*, 43*, 44*: suppressed below vehicle 14.5, dose is that of least suppression)) worked out at 29.625 HTR/20 min. Besides, the “Most Efficacious Dose for Peak HTR/min” value in the data set with C57BL/6 mice (dose giving highest peak HTR/min (35*, 43*, 44*: dose that resulted in the least suppression)) is reported as “(10) mg/kg, sc”. The “Most Efficacious Dose for # HTR/20 min” value in the data set on C57BL/6 mice (dose giving most HTR/20 min (35*, 43*, 44*: dose that resulted in the least suppression)) was “(3.2) mg/kg, sc”. In addition, the “Peak HTR/min at Most Efficacious Dose” value with C57BL/6 mice (rate over 2-min bins, mean, at each compound's most efficacious dose (35*, 43*, 44*: suppressed below vehicle 1.62, dose is that of least suppression)) stood at 3.625 HTR/min. Besides, on 5-HT1B receptor (max dose), the “5-HT1B % Act @ Max Dose” value was 88.07%.
As for `CCN(CC)C(=O)[C@@H]1C=C2c3cccc4[nH]cc(c34)C[C@H]2N(CC2CCCC2)C1` [Compound 90, (6aR,9R)-7-(cyclopentylmethyl)-N,N-diethyl-4,6,6a,7,8,9-hexahydroindolo[4,3-fg]quinoline-9-carboxamide], the Emax on 5-HT1A receptor came to 76.8%; on 5-HT2B receptor [3] (HEK293, max dose), 12%; at 5-HT2A receptor [4] (Ca2+ flux, HEK293, max dose), 55.8%. For the same molecule, the EC50 at 5-HT1A receptor (CHO cells with Gα15) was 42600 nM; on 5-HT2B receptor [3] (agonist), above 10000 nM; on 5-HT2A receptor [4] (agonist, Ca2+ flux), 642 nM. Further, the results for the Ki at 5-HT2B receptor [1] and on 5-HT2A receptor [5] were 2.08 nM and 2.35 nM, respectively. Also, the microsomal CLint in “in vitro [6]” (rat, microsomes, read-out: Intrinsic clearance (Clint)) amounted to 370 µL/min/mg; in “in vitro [7]” (mouse, microsomes, read-out: Intrinsic clearance (Clint)) it was 649 µL/min/mg; in the data set “in vitro [8]” (human, microsomes, read-out: Intrinsic clearance (Clint)), 140 µL/min/mg. In addition, the half-life was 3.7 min in the data set “in vitro [6]” (rat, microsomes, read-out: half-life (t1/2)); 2.1 min in the data set “in vitro [7]” (mouse, microsomes, read-out: half-life (t1/2)); 9.9 min in the data set “in vitro [8]” (human, microsomes, read-out: half-life (t1/2)).

The term Ki denotes the dissociation constant of the complex between target and ligand, obtained from inhibition or displacement. What is called EC50 is the concentration at which the effect is half-maximal.
